Assay results reported in ChEMBL document CHEMBL1153708, “Synthesis and evaluation of a thio analogue of duocarmycin SA” (Bioorg Med Chem Lett, 2009).
Active and inactive are the calls of the source. The rule behind the calls is not given here.

System: L1210
Assay: Cytotoxicity against mouse L1210 cells
Type: functional, cell-based

SMILES | IC50
COC(=O)c1cc2c(s1)C(=O)C=C1N(C(=O)c3cc4cc(OC)c(OC)c(OC)c4[nH]3)C[C@H]3C[C@]123 | 0.007 nM
COC(=O)c1cc2c([nH]1)C(=O)C=C1N(C(=O)OC(C)(C)C)C[C@@H]3C[C@@]123 | 60 nM
COC(=O)c1cc2c(s1)C(=O)C=C1N(C(=O)c3cc4cc(OC)c(OC)c(OC)c4[nH]3)C[C@@H]3C[C@@]123 | 0.06 nM
COC(=O)c1cc2c(s1)C(=O)C=C1N(C(=O)OC(C)(C)C)C[C@H]3C[C@]123 | 6 nM
COC(=O)c1cc2c(s1)C(=O)C=C1N(C(=O)OC(C)(C)C)C[C@@H]3C[C@@]123 | 55 nM

System: Nucleic Acid
Assay: Induction of w794 DNA alkylation at 10 uM after 24 hrs by PAGE
Type: nucleic-acid assay

SMILES | Activity
COC(=O)c1cc2c(s1)C(=O)C=C1N(C(=O)c3cc4cc(OC)c(OC)c(OC)c4[nH]3)C[C@@H]3C[C@@]123 | Active
COC(=O)c1cc2c([nH]1)C(=O)C=C1N(C(=O)c3cc4cc(OC)c(OC)c(OC)c4[nH]3)C[C@@H]3C[C@@]123 | Active
COC(=O)c1cc2c([nH]1)C(=O)C=C1N(C(=O)c3cc4cc(OC)c(OC)c(OC)c4[nH]3)C[C@H]3C[C@]123 | Active
